{"source": "paper PMC12153356", "about": "“An antisense oligomer conjugate with unpredicted bactericidal activity against Fusobacterium nucleatum” (mBio, 2025)", "key": {"[1]": {"system": "F. nucleatum subsp. nucleatum ATCC 23726 (FNN23)", "experiment": "Determination of bactericidal effect by CFU spot assay", "format": "cell-based, Fusobacterium nucleatum subsp. nucleatum ATCC 23726", "settings": "10 µM, 1 × 10^5 CFU/mL in MHB, spotting on BHI agar plates, up to 96 h, three replicates", "protocol": "To investigate the bactericidal effects of PNAs an o.n. culture of FNN23 grown in ColB was diluted 1:50 in fresh ColB and grown to OD600 0.5. This culture was then diluted 1:2,500 to 1 × 10^5 CFU/mL in MHB, and 190 µL of the culture was dispensed into a transparent 96-well plate (Nunc, Thermo Fischer Scientific) together with 10 µL of respective 20× PNA stock or water and incubated at 37°C with 237 cpm shaking every 20 min. At the respective time points, 100 µL was taken out of the well, a 1:10 serial dilution series was prepared with 900 µL anoxic 1× PBS, and 5 µL of each dilution was spotted on BHI plates for CFU determination. Plates were incubated for 3 days at 37°C before taking out the plates of the anaerobic chamber for CFU counting."}, "[2]": {"system": "HeLa cells", "settings": "cited from earlier work"}, "[3]": {"system": "F. nucleatum subsp. nucleatum ATCC 23726 (FNN23)", "experiment": "MIC determination and growth inhibition assay (broth microdilution, OD600 over time)", "format": "cell-based, Fusobacterium nucleatum subsp. nucleatum ATCC 23726", "settings": "MHB; for Growth inhibition of FNN23: 10 µM compound, 1 × 10^5 CFU/mL, growth inhibition = no visible growth (OD600 <0.01) after 120 h", "protocol": "To test CPP-PNA conjugates for growth inhibition, we diluted mid-exponential phase cultures of FNN23 to 1 × 10^5 colony forming units (CFUs) per milliliter in Mueller-Hinton Broth (MHB) and incubated the diluted bacteria with 10 µM of either (KFF)3K- or (RXR)4XB- conjugated PNAs targeting acpP, ftsZ or gyrA. Growth was monitored over time by OD600 measurements, with growth inhibition defined as no visible growth (OD600 <0.01) after 120 h. […] Based on these findings, we conclude that CPP-PNAs targeting fusobacterial mRNAs are not effective in antisense inhibition.\n(§1) The following fusobacterial strains were used in this study: Fusobacterium nucleatum subsp. nucleatum ATCC 23726 (FNN23) acquired from the American Type Culture Collection (ATCC), F. nucleatum subsp. nucleatum ATCC 25586 (FNN25), F. nucleatum subsp. vincentii ATCC 49256 (FNV), and F. nucleatum subsp. polymorphum ATCC 10953 (FNP) acquired from the German Collection of Microorganisms and Cell Culture (DSMZ), F. nucleatum subsp. animalis 7_1 (FNA) and F. periodonticum 2_1_31 (FPE) both received as a kind gift from E. Allen-Vercoe (University of Guelph, Canada). All strains were routinely grown at 37°C in 80:10:10 (N2:H2:CO2) anaerobic conditions on 2% agar supplemented BHI plates (BHI, 1% [wt:vol] dried yeast extract, 1% [vol:vol] 50% sterile-filtered glucose solution, 5 µg/mL of hemin; 1% [vol:vol] fetal bovine serum) from frozen 20% glycerol stocks kept at −80°C. For liquid growth, the strains were cultured in Columbia broth (ColB; BD Difco). Precultures were prepared 24 h before inoculating the working culture at a 1:50 dilution in fresh ColB until OD600 0.5 was reached. Cultures were then diluted in non-cation adjusted Mueller-Hinton Broth (MHB, BD Difco) to the desired CFU/mL number. P. gingivalis (DSM 20709) was purchased from DSMZ and grown at 37°C in anaerobic conditions as mentioned above on 2% agar supplemented BHI+ plates (BHI, 1% [wt:vol] dried yeast extract, 1% [vol:vol] 50% sterile filtered glucose solution, 5 µg/ml of hemin; 10% [vol:vol] fetal bovine serum; and 1 µg/mL vitamin K3) for 4 days. For liquid growth, P. gingivalis was cultured in BHI+ medium (BHI, BD Difco supplemented with 1% [vol:vol] 50% sterile-filtered glucose solution, 5 µg/mL of hemin; 1% [vol:vol] fetal bovine serum, and 1 µg/mL vitamin K3). Precultures were prepared 24 h before inoculating the working culture at a 1:20 dilution in BHI+ until OD600 of 0.5 was reached. All plates, media, buffers, and reagents were brought into the anaerobic chamber the day before usage to ensure full oxygen depletion.\nTo determine the MIC value, broth microdilutions were performed according to the standard protocol with some modifications ([119]). An overnight bacterial culture was diluted in a fresh ColB medium and grown to OD600 0.5 (mid-exponential phase). […] To determine the growth inhibition of P. gingivalis, an o.n. culture grown in BHI+ was diluted 1:1,500 in MHB to obtain 1 × 10^5 CFU/mL. E. coli K12, E. coli Nissle 1917, and S. enterica o.n. cultures grown in MHB were diluted 1:1,800 in fresh MHB to obtain 1 × 10^5 CFU/mL. In total, 190 µL of diluted bacterial cultures were pipetted into a transparent 96-well plate (Nunc, Thermo Fischer Scientific) together with 10 µL of respective 20× CPP or CPP-PNA stock or water as control. Bacterial growth was monitored by measuring OD600 every 20 min with constant shaking in a plate reader (Biotek) under the normal atmospheric environment or positioned in the anaerobic chamber with double orbital shaking every 20 min prior to each measurement with 237 cpm at 37°C for 120 h."}, "[4]": {"system": "F. nucleatum subsp. nucleatum ATCC 25586 (FNN25)", "experiment": "Growth inhibition assay", "format": "cell-based, Fusobacterium nucleatum subsp. nucleatum ATCC 25586", "settings": "10 µM, MHB, 1 × 10^5 CFU/mL input, three replicates; listed as sequence variant 1", "text": "as §1, with “For liquid growth, P. gingivalis was cultured in BHI+ medium (BHI, BD Difco supplemented with 1% [vol:vol] 50% sterile-filtered glucose solution, 5 µg/mL of hemin; 1% [vol:vol] fetal bovine serum, and 1 µg/mL vitamin K3). Precultures were prepared 24 h before inoculating the working culture at a 1:20 dilution in BHI+ until OD600 of 0.5 was reached. All plates, media, buffers, and reagents were brought into the anaerobic chamber the day before usage to ensure full oxygen depletion.” left out\n(§2) To determine the MIC value, broth microdilutions were performed according to the standard protocol with some modifications ([119]). […] Bacterial growth was monitored by measuring OD600 every 20 min with constant shaking in a plate reader (Biotek) under the normal atmospheric environment or positioned in the anaerobic chamber with double orbital shaking every 20 min prior to each measurement with 237 cpm at 37°C for 120 h."}, "[5]": {"system": "F. nucleatum subsp. animalis 7_1 (FNA)", "experiment": "Growth inhibition assay", "format": "cell-based, Fusobacterium nucleatum subsp. animalis 7_1", "settings": "10 µM, MHB, 1 × 10^5 CFU/mL input, three replicates; listed as sequence variant 1", "text": "as §1, with “For liquid growth, P. gingivalis was cultured in BHI+ medium (BHI, BD Difco supplemented with 1% [vol:vol] 50% sterile-filtered glucose solution, 5 µg/mL of hemin; 1% [vol:vol] fetal bovine serum, and 1 µg/mL vitamin K3). Precultures were prepared 24 h before inoculating the working culture at a 1:20 dilution in BHI+ until OD600 of 0.5 was reached. All plates, media, buffers, and reagents were brought into the anaerobic chamber the day before usage to ensure full oxygen depletion.” left out\nas §2"}, "[6]": {"system": "F. nucleatum subsp. polymorphum ATCC 10953 (FNP)", "experiment": "Growth inhibition assay", "format": "cell-based, Fusobacterium nucleatum subsp. polymorphum ATCC 10953", "settings": "10 µM, MHB, 1 × 10^5 CFU/mL input, three replicates; listed as sequence variant 1", "text": "as §1, with “For liquid growth, P. gingivalis was cultured in BHI+ medium (BHI, BD Difco supplemented with 1% [vol:vol] 50% sterile-filtered glucose solution, 5 µg/mL of hemin; 1% [vol:vol] fetal bovine serum, and 1 µg/mL vitamin K3). Precultures were prepared 24 h before inoculating the working culture at a 1:20 dilution in BHI+ until OD600 of 0.5 was reached. All plates, media, buffers, and reagents were brought into the anaerobic chamber the day before usage to ensure full oxygen depletion.” left out\nas §2"}, "[7]": {"system": "F. periodonticum 2_1_31 (FPE)", "experiment": "Growth inhibition assay", "format": "cell-based, Fusobacterium periodonticum 2_1_31", "settings": "10 µM, MHB, 1 × 10^5 CFU/mL input, three replicates; listed as sequence variant 1", "text": "as §1, with “For liquid growth, P. gingivalis was cultured in BHI+ medium (BHI, BD Difco supplemented with 1% [vol:vol] 50% sterile-filtered glucose solution, 5 µg/mL of hemin; 1% [vol:vol] fetal bovine serum, and 1 µg/mL vitamin K3). Precultures were prepared 24 h before inoculating the working culture at a 1:20 dilution in BHI+ until OD600 of 0.5 was reached. All plates, media, buffers, and reagents were brought into the anaerobic chamber the day before usage to ensure full oxygen depletion.” left out\nas §2"}}, "note": "Square brackets hold non-standard residues; d marks the D form. Peptide text beside a SMILES is read from it. Ahx = NCCCCCC(=O)O; βAla = NCCC(=O)O", "data": [{"molecule": "N=C(N)NCCC[C@H](NC(=O)CCCCCNC(=O)[C@H](CCCNC(=N)N)NC(=O)[C@H](CCCNC(=N)N)NC(=O)CCCCCNC(=O)[C@H](CCCNC(=N)N)NC(=O)[C@H](CCCNC(=N)N)NC(=O)CCCCCNC(=O)[C@H](CCCNC(=N)N)NC(=O)[C@H](CCCNC(=N)N)NC(=O)CCCCCNC(=O)[C@@H](N)CCCNC(=N)N)C(=O)NCCCCCC(=O)NCCC(=O)O", "note": "[(RXR)4XB, reference compound] (H-R[Ahx]RR[Ahx]RR[Ahx]RR[Ahx]R[Ahx][βAla]-OH; N-terminus and C-terminus assumed)", "values": [{"measurement": "Bactericidal effect (viable cells, CFU) on FNN23", "setting": "[1]", "value": "no bactericidal effect"}]}, {"molecule": "CC[C@H](C)[C@H](NC(=O)[C@H](CCCNC(=N)N)NC(=O)[C@H](CCCNC(=N)N)NC(=O)[C@H](CC(C)C)NC(=O)[C@H](Cc1c[nH]c2ccccc12)NC(=O)[C@H](C)NC(=O)[C@H](CCCCN)NC(=O)[C@@H](NC(=O)[C@H](CCCNC(=N)N)NC(=O)[C@H](CCCNC(=N)N)NC(=O)[C@H](CC(C)C)NC(=O)[C@@H](N)Cc1c[nH]c2ccccc12)[C@@H](C)CC)C(=O)N[C@@H](CCCCN)C(=O)N[C@@H](C)C(=O)N[C@@H](CC(C)C)C(=O)N[C@@H](CC(N)=O)C(=O)N[C@@H](CCCNC(=N)N)C(=O)N[C@@H](CCC(N)=O)C(=O)N[C@@H](CC(C)C)C(=O)NCC(=O)N[C@H](C(=O)N[C@@H](C)C(=O)N[C@@H](C)C(=O)O)C(C)C", "note": "[Seq471]", "values": [{"measurement": "Cytotoxicity in HeLa cells", "setting": "[2]", "value": "without notable cytotoxicity"}]}, {"molecule": "GACATAATTGT [PNA79, FUS79 without the (RXR)4XB module, PNA …]", "values": [{"measurement": "Growth inhibition of FNN23", "setting": "[3]", "value": "only the original FUS79 as well as sequence variant 1 conjugated to full-length (RXR)4XB inhibited the growth"}]}, {"molecule": "KFFKFFKFFK (GACATAATTGT; all phosphorodiamidate morpholino (PMO); (KFF)3K peptide conjugated via azide-cyclooctyne click, attachment end not given here) [(KFF)3K-PMO79, (KFF)3K conjugated to 11mer PMO …]", "values": [{"measurement": "Growth inhibition of FNN23", "setting": "[3]", "value": "did not inhibit the growth"}]}, {"molecule": "KFFKFFKFFK [(KFF)3K-gyrA_11mer_2, (KFF)3K conjugated to 11mer PNA … targeting gyrA]", "values": [{"measurement": "Growth delay of FNN23", "setting": "[3]; 10 µM (KFF)3K-PNA, 1 × 10^5 CFU/mL (Fig. 2C)", "value": "~ 40 h"}, {"measurement": "Growth retardation of FNN23 at higher concentrations", "setting": "[3]; concentrations higher than 10 µM, 1 x 10^5 CFU per ml (Fig. S1C)", "value": "did not lead to further growth retardation"}]}, {"molecule": "Polymyxin B [reference compound]", "values": [{"measurement": "Bactericidal effect (viable cells, CFU) on FNN23", "setting": "[1]", "value": "fully diminished CFUs after 96 h"}]}, {"molecule": "RXRRXRRXRRXRXB [(RXR)4XB-ftsZ, (RXR)4XB conjugated to 10mer PNA … targeting ftsZ]", "values": [{"measurement": "Bactericidal effect (viable cells, CFU) on FNN23", "setting": "[1]; listed as (RXR)4XB-PNA targeting ftsZ", "value": "could not observe a CFU reduction"}]}, {"molecule": "RXRRXRRXRRXRXB [(RXR)4XB-non-targeting-PMO, (RXR)4XB conjugated to non-targeting 11mer PMO …]", "values": [{"measurement": "Growth inhibition of FNN23", "setting": "[3]; listed as (RXR)4XB-conjugated non-targeting PMO control", "value": "did not inhibit the growth"}]}, {"molecule": "RXRRXRRXRRXRXB [(RXR)4XB-trpB, (RXR)4XB conjugated to 11mer PNA … complementary to trpB TIR]", "values": [{"measurement": "Growth inhibition of FNN23", "setting": "[3]", "value": "did not result in growth impairment"}]}, {"molecule": "RXRRXRRXRRXRXB [FUS79 variant 1]", "values": [{"measurement": "Growth inhibition of FNN23", "setting": "[3]; listed as sequence variant 1", "value": "inhibited the growth"}, {"measurement": "Growth inhibition of FNN25", "setting": "[4]", "value": "effective in strains susceptible to FUS79"}, {"measurement": "Growth inhibition of FNA", "setting": "[5]", "value": "effective in strains susceptible to FUS79"}, {"measurement": "Growth inhibition of FNP", "setting": "[6]", "value": "effective in strains susceptible to FUS79"}, {"measurement": "Growth inhibition of FPE", "setting": "[7]", "value": "effective in strains susceptible to FUS79"}]}, {"molecule": "RXRRXRRXRXB [(RXR)3XB-PNA79, PNA … with shortened CPP module RXRRXRRXRXB]", "values": [{"measurement": "Growth inhibition of FNN23", "setting": "[3]", "value": "only the original FUS79 as well as sequence variant 1 conjugated to full-length (RXR)4XB inhibited the growth"}]}]}
